The numbers were not newly measured in article PMC11360046 (ACS Omega, 2024), which cites them from elsewhere.

This series has as its system BRD4 BD2. The settings on record: read-out: IC50 BRD4 BD2; I-58.

pIC50: −log10 of the molar value.

In general, pIC50 refers to the IC50 on a negative log10 scale, so that one unit is a factor of ten. As to `CN1CCC(Nc2cccc(CN3c4ccccc4C=C4c5c(cccc53)C(=O)N4C)c2)CC1` [Compound I-58, 1-methyl-6-(3-((1-methylpiperidin-4-yl)amino)benzyl)-1,6-dihydro-2H-benzo[6,7]azepino[4,3,2-cd]isoindol-2-one], the negative logarithm of the IC50 (pIC50) is 8.73.
